Measured values from ChEMBL document CHEMBL5260832, “Hepatoprotective natural triterpenoids” (Eur J Med Chem, 2018).

Assays:
[1] = Hepatotoxicity in CCl4-induced ICR mouse model assessed as change in SOD level, po measured after 7 days; format: toxicity, organism-based; details: in vivo, 168 h, time 7 day
[2] = Hepatotoxicity in CCl4-induced ICR mouse model assessed as change in GSH-PX level, po measured after 7 days; format: toxicity, organism-based; details: in vivo, 168 h, time 7 day
[3] = Hepatotoxicity in DMF-induced ICR mouse model assessed as change in CAT level, po measured after 7 days; format: toxicity, organism-based; details: in vivo, 168 h, time 7 day
[4] = Hepatotoxicity in CCl4-induced ICR mouse model assessed as change in CAT level, po measured after 7 days; format: toxicity, organism-based; details: in vivo, 168 h, time 7 day
[5] = Hepatotoxicity in DMF-induced ICR mouse model assessed as change in SOD level, po measured after 7 days; format: toxicity, organism-based; details: in vivo, 168 h, time 7 day
[6] = Hepatotoxicity in DMF-induced ICR mouse model assessed as change in GSH-PX level, po measured after 7 days; format: toxicity, organism-based; details: in vivo, 168 h, time 7 day
[7] = Hepatotoxicity in D-GaIN induced Wistar rat assessed as change in GTP leakage level for 10 days relative to control; format: toxicity; details: in vivo, 240 h, time 10 day
Mus musculus [8] = species on record: Mus musculus; test: Hepatoprotective activity against D-galactosamine-induced liver injury mouse model assessed as […] leakage at 50 ug/ml; format: functional; details: dose 50 µg/ml
[9] = Hepatotoxicity in acetaminophen-induced Wistar rat assessed as reduction in liver damage by measuring histological score at 50 to 100 mg/kg (reference value: 4.83); format: toxicity, organism-based; details: in vivo, dose 50-100 mg/kg
[10] = Hepatotoxicity in D-GaIN induced Wistar rat assessed as change in induction of TAT level for 10 days relative to control; format: toxicity; design: concentration or dose not given beside the values; details: in vivo, 240 h, time 10 day
Mus musculus [11] = species on record: Mus musculus; test: Hepatoprotective activity in CCl4-induced toxicity in liver injured mouse assessed as increase in inhibition of liver damage at 50 uM relative to control; format: functional; design: scale not given: the % may be the effect or the level left
HepG2 [12] = test: Cytoprotective activity against t-BHP induced cell death in human HepG2 cells assessed as cell survival rate at 5 uM relative to control; format: functional
L02 [13] = test: Protection against D-GalN-induced toxicity in L02 cells […] assessed as reduction in cell growth relative to control; format: functional, Homo sapiens; design: scale not given: the % may be the effect or the level left
L02 [14] = test: Protection against D-GalN-induced toxicity in L02 cells […] assessed as reduction in cell growth at 6.25 microg/ml relative to control; format: functional, Homo sapiens; design: scale not given: the % may be the effect or the level left; details: dose 6.25 µg/ml
L02 [15] = test: Protection against D-GalN-induced toxicity in L02 cells […] assessed as reduction in cell growth at 3.13 microg/ml relative to control; format: functional, Homo sapiens; design: scale not given: the % may be the effect or the level left; details: dose 3.13 µg/ml
Hepatocyte = test: Protection against CCL4-induced rat hepatocyte toxicity assessed as reduction in ALT level at 90 uM relative to control; format: functional; design: scale not given: the % may be the effect or the level left
HepG2 [16] = test: Hepatoprotective activity against H2O2-induced cell death in human HepG2 cells assessed as reduction in ALT level at 74.60 uM preincubated for 1 hr followed by H2O2-stimulation and measured after 24 hrs; format: functional; details: dose 74.6 µM
HepG2 [17] = test: Hepatoprotective activity against H2O2-induced cell death in human HepG2 cells assessed as reduction in AST level at 18.65 uM preincubated for 1 hr followed by H2O2-stimulation and measured after 24 hrs; format: functional
HepG2 [18] = test: Hepatoprotective activity against H2O2-induced cell death in human HepG2 cells assessed as reduction in AST level at 74.60 uM preincubated for 1 hr followed by H2O2-stimulation and measured after 24 hrs; format: functional; details: dose 74.6 µM
Huh-7 = test: Hepatoprotective activity in human Huh-7 cells assessed as reduction in AST level; format: functional; design: scale not given: the % may be the effect or the level left

## C[C@@H]1O[C@@H](O[C@H]2[C@H](OC(=O)[C@]34CCC(C)(C)C[C@H]3C3=CC[C@@H]5[C@@]6(C(=O)O)CC[C@H](O)[C@@](C)(C(=O)O)[C@@H]6CC[C@@]5(C)[C@]3(C)CC4)O[C@H](C)[C@H](O)[C@@H]2O)[C@H](O)[C@H](O)[C@H]1O[C@@H]1O[C@H](CO)[C@@H](O[C@@H]2OC[C@@H](O)[C@H](O)[C@H]2O[C@@H]2OC[C@H](O)[C@H](O)[C@H]2O)[C@H](O)[C@H]1O
[1]
  Activity: 221.03 U/mg
[2]
  Activity: 69.12 U/mg
[3]
  Activity: 84.68 U/mg
[4]
  Activity: 87.1 U/mg
[5]
  Activity: 198.16 U/mg
[6]
  Activity: 59.91 U/mg

## CC1(C)CC[C@]2(C)CC[C@]3(C)C(=CC[C@@H]4[C@@]5(C)CC[C@H](O)C(C)(C)[C@@H]5CC[C@]43C)[C@@H]2C1 [beta-AMYRIN]
[7]
  Activity: 49.4%
Mus musculus [8]
  Activity: 17.3%
[9]
  Activity: 2.17
[10]
  Activity: 40%

## C[C@H]1[C@H](C)CC[C@]2(C(=O)O)CC[C@]3(C)C(=CC[C@@H]4[C@@]5(C)CC[C@H](O)[C@@](C)(CO)[C@@H]5CC[C@]43C)[C@H]12
Mus musculus [11]
  Activity: 58.3%

## CC(C(=O)O)[C@H]1CC[C@@]2(C)[C@@H]3C(=O)C=C4[C@@H](CC[C@@H](O)C4(C)C)[C@]3(C)CC[C@]12C (stereo partly specified)
HepG2 [12]
  Activity: 55.2%

## CC(C)(O[C@@H]1O[C@H](CO)[C@@H](O)[C@H](O)[C@H]1O)[C@@H]1CC[C@@H]([C@H]2[C@H](O)C[C@]3(C)[C@@H]2CC[C@@H]2[C@@]4(C)CC[C@H](O[C@@H]5O[C@H](CO)[C@@H](O)[C@H](O)[C@H]5O[C@@H]5O[C@H](CO)[C@@H](O)[C@H](O)[C@H]5O)C(C)(C)[C@@H]4CC[C@]23C)O1
L02 [13]
  Activity: 46.7%
L02 [14]
  Activity: 22.8%
L02 [15]
  Activity: 22.8%

## C[C@@H]1O[C@@H](O[C@H]2[C@H](O[C@H]3CC[C@]4(C)[C@H]5CC=C6[C@@H]7CC(C)(C)CC[C@]7(C(=O)O[C@@H]7O[C@H](CO)[C@@H](O)[C@H](O)[C@H]7O[C@@H]7O[C@H](CO)[C@@H](O)[C@H](O)[C@H]7O)[C@H](O)C[C@@]6(C)[C@]5(C)CC[C@H]4C3(C)C)O[C@H](CO)[C@@H](O)[C@@H]2O)[C@H](O)[C@H](O)[C@H]1O
Hepatocyte
  Activity: 79%

## C[C@@H]1O[C@@H](O[C@H]2[C@H](OC(=O)[C@]34CCC(C)(C)C[C@H]3C3=CC[C@@H]5[C@@]6(C(=O)O)CC[C@H](O)[C@@](C)(C(=O)O)[C@@H]6CC[C@@]5(C)[C@]3(C)CC4)O[C@H](C)[C@H](O)[C@@H]2O)[C@H](O)[C@H](O)[C@H]1O[C@@H]1O[C@H](CO)[C@@H](O[C@@H]2OC[C@@H](O)[C@H](O)[C@H]2O)[C@H](O)[C@H]1O
[1]
  Activity: 193.68 U/mg
[2]
  Activity: 67.77 U/mg
[3]
  Activity: 81.85 U/mg
[4]
  Activity: 85.63 U/mg
[5]
  Activity: 196.16 U/mg
[6]
  Activity: 59.57 U/mg

## C=C(C)[C@@H]1C[C@H](O)C2=C(C(=O)C[C@]3(C)[C@@H]([C@H](C)CCC(=O)OC)CC[C@@]23C)[C@@]1(C)CCC(=O)O
HepG2 [16]
  Activity: 7.22 U/L
HepG2 [17]
  Activity: 19.56 U/L
HepG2 [18]
  Activity: 10.53 U/L

## C[C@@H]1CC[C@]2(C(=O)O)CC[C@]3(C)C(=CC[C@@H]4[C@@]5(C)C[C@@H](O)[C@@H](O)C(C)(C)[C@@H]5CC[C@]43C)[C@@H]2[C@]1(C)O [EUSCAPHIC ACID]
Huh-7
  Activity: 48.8%
